For orientation: Km means the substrate concentration at which the rate is half of its maximum.

This is an account of results in patent US20060216774A1 (priority 2003, published 2006).

Data set [1] concerns the target icl2 (isocitrate lyase) (Mycobacterium tuberculosis, UniProt Q8VJU4). Particulars: read-out: Km for icl2; substrate isocitrate; cited from earlier work.
The target in data set [2] is isocitrate lyase (icl) (Escherichia coli, UniProt P0A9G6). Particulars: read-out: Km of icl; E. coli, substrate isocitrate; cited from earlier work.
In data set [3] the target is icl1 (isocitrate lyase) (Mycobacterium tuberculosis, UniProt P9WKK7). Particulars: read-out: Km for icl1; substrate isocitrate; cited from earlier work.
Data set [4] relates to O=C(O)CC(C(=O)O)C(O)C(=O)O. The data set can be described thus: purified protein, by the assay type. Particulars: other: Lineweaver-Burke plot and Cornish-Bowden direct linear plot.

Sequence of icl1 (isocitrate lyase) (P9WKK7 whole entry): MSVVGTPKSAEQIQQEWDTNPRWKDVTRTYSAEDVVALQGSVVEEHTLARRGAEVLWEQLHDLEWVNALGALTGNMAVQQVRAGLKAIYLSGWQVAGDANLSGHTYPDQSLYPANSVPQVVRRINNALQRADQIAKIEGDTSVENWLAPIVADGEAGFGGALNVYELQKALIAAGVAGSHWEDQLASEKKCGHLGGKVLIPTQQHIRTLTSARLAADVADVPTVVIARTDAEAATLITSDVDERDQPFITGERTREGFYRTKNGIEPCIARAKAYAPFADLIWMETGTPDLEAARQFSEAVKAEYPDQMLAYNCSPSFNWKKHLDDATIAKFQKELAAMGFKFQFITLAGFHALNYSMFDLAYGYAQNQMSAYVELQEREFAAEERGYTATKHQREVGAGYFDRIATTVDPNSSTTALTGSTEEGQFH
Sequence of isocitrate lyase (icl) (P0A9G6 whole entry): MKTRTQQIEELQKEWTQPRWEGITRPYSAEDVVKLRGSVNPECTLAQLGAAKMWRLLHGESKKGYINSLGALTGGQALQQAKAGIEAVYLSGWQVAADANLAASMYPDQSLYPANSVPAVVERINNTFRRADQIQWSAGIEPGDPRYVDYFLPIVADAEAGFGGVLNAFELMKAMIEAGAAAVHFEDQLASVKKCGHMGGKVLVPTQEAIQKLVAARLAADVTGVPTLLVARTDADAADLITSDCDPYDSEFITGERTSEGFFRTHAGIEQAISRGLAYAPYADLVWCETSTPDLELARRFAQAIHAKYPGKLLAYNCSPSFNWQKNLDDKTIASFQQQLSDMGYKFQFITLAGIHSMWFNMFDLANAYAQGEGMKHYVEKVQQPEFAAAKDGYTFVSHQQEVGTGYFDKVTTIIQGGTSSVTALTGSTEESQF
Sequence of icl2 (isocitrate lyase) (Q8VJU4 whole entry): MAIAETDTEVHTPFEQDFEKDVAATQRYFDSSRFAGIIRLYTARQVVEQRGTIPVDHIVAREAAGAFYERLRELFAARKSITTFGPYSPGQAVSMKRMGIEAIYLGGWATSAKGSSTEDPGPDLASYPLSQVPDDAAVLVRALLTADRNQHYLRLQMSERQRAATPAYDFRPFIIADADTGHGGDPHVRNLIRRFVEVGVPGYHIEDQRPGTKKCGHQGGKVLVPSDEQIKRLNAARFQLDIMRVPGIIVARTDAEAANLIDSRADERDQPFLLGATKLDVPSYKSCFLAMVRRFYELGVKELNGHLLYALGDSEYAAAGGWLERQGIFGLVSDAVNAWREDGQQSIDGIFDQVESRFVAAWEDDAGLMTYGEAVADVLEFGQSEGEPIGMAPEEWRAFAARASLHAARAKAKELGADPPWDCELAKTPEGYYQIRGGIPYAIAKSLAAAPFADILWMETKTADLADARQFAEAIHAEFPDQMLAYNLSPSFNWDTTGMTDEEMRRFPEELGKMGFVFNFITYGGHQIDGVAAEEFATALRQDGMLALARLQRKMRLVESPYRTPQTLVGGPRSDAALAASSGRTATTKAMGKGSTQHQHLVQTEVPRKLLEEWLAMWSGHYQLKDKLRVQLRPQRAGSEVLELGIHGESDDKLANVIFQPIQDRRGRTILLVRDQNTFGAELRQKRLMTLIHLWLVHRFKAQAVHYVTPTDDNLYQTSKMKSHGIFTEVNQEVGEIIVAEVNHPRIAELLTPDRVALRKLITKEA

For `O=C(O)CC(C(=O)O)C(O)C(=O)O` (stereo not shown) [isocitrate], the figures for the Michaelis constant (Km) in data set [1], in data set [2] and in data set [3] were about 1.5 mM, 604 µM and about 115 µM, respectively.
Take “icd1 (isocitrate dehydrogenase, Rv 3339c) (Mycobacterium tuberculosis H37Rv)”: the Km in data set [4] worked out at 12 µM.
